Results taken from ChEMBL document CHEMBL1136524, “Substituted 2-pyridinemethanol derivatives as potent and selective phosphodiesterase-4 inhibitors” (Bioorg Med Chem Lett, 2003).

Assays:
Homo sapiens = species: Homo sapiens; assay: Ability to inhibit LPS-induced TNF-alpha formation in human whole blood (HWB); assay type: functional, organism-based
[1] = target: T1, 3',5'-cyclic-AMP phosphodiesterase 4A (Homo sapiens, UniProt P27815); assay: In vitro inhibitory activity against Phosphodiesterase 4A (PDE4)
T1 sequence (P27815 whole entry): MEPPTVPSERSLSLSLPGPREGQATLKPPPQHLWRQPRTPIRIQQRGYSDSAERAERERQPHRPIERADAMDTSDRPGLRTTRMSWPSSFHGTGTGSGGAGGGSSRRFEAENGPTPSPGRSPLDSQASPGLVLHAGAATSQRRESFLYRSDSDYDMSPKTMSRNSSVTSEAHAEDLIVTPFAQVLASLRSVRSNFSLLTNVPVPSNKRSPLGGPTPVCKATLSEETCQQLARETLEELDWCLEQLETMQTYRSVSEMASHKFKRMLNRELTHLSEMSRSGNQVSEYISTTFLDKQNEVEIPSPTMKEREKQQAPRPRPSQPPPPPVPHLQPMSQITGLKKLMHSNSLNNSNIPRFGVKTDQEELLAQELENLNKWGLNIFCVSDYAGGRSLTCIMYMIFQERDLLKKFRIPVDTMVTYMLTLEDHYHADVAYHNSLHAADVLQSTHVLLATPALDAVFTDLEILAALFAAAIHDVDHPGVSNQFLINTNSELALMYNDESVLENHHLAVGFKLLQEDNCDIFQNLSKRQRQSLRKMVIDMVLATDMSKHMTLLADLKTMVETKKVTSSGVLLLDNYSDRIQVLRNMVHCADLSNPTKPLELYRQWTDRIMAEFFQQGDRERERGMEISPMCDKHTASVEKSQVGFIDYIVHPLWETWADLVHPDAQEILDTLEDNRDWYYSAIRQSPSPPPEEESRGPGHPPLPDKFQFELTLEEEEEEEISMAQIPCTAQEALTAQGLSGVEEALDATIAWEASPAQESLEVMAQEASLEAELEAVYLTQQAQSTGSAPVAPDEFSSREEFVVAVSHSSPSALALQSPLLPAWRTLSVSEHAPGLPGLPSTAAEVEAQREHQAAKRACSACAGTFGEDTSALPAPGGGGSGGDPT

[2] = target: T1, 3',5'-cyclic-AMP phosphodiesterase 4A; assay: Inhibition of Phosphodiesterase-4A (PDE4)
[3] = Half life period was determined in squirrel monkey after iv administration at a dose of 5 mg/kg; assay type: ADME, organism-based; parameters: dose 5 mg/kg, route intravenous; conditions: in vivo
[4] = Oral bioavailability in squirrel monkey at a dose of 10 mg/kg; assay type: ADME, organism-based, Saimiri sciureus; conditions: in vivo
[5] = Maximal plasma concentration in squirrel monkeys; assay type: ADME, organism-based
[6] = Oral bioavailability in rat; assay type: ADME, organism-based; conditions: in vivo
[7] = Half life period was determined in rat after iv administration at a dose of 5 mg/kg; assay type: ADME, organism-based; parameters: dose 5 mg/kg, route intravenous; conditions: in vivo
Cavia porcellus = assay: Inhibition of ovalbumin induced bronchoconstriction in conscious guinea pig after ip administration at 0.3 mg/kg (0.5 hr pre-treatment); assay type: functional; conditions: route intraperitoneal
Ovis aries [8] = assay: Inhibition of ascaris-induced bronchoconstriction in conscious sheep at 0.5 mg/kg iv dose late phase; assay type: functional
Ovis aries [9] = assay: Inhibition of ascaris-induced bronchoconstriction in conscious sheep at 0.5 mg/kg iv dose at early phase; assay type: functional

| SMILES | IC50 (Homo sapiens; Homo sapiens, Blood) [nM] | IC50 [1] [nM] | also measured |
| --- | --- | --- | --- |
| CC(C)C(O)(c1ccccc1)c1ccc(C(Cc2cc[n+]([O-])cc2)c2ccc(OC(F)F)c(OC(F)F)c2)cn1 (configuration not stated) | 370 | 0.8 |  |
| [O-][n+]1ccc(CC(c2ccc(C(O)(c3ccccc3)c3ccccc3)nc2)c2ccc(OC(F)F)c(OC(F)F)c2)cc1 (configuration not stated) | 550 | 0.8 |  |
| CC(O)(c1ccc(C(Cc2cc[n+]([O-])cc2)c2ccc(OC(F)F)c(OC(F)F)c2)cn1)C1CCCCC1 (configuration not stated) | 300 | 1.2 |  |
| CC(C)(O)c1ccc(C(Cc2cc[n+]([O-])cc2)c2ccc(OC(F)F)c(OC(F)F)c2)cn1 (configuration not stated) | 890 | 40 |  |
| [O-][n+]1ccc(CC(c2ccc(C(O)c3ccccc3)nc2)c2ccc(OC(F)F)c(OC(F)F)c2)cc1 (configuration not stated) | 360 |  | IC50 [2]: 6 nM |
| CC(O)(c1ccc(C(Cc2cc[n+]([O-])cc2)c2ccc(OC(F)F)c(OC(F)F)c2)cn1)c1nccs1 (configuration not stated) | 490 | 6 |  |
| [O-][n+]1ccc(CC(c2ccc(C(O)(c3ccccc3)C(F)(F)F)nc2)c2ccc(OC(F)F)c(OC(F)F)c2)cc1 (configuration not stated) | 460 | 2.4 |  |
| O=C(c1ccccc1)c1ccc(C(Cc2cc[n+]([O-])cc2)c2ccc(OC(F)F)c(OC(F)F)c2)cn1 (configuration not stated) | 600 |  | IC50 [2]: 23 nM |
| CCCCC(C)(O)c1ccc(C(Cc2cc[n+]([O-])cc2)c2ccc(OC(F)F)c(OC(F)F)c2)cn1 (configuration not stated) | 340 | 6 |  |
| CCC(O)(c1ccccc1)c1ccc(C(Cc2cc[n+]([O-])cc2)c2ccc(OC(F)F)c(OC(F)F)c2)cn1 (configuration not stated) | 160 |  | IC50 [2]: 1 nM |
| [O-][n+]1ccc(CC(c2ccc(Cc3ccccc3)nc2)c2ccc(OC(F)F)c(OC(F)F)c2)cc1 (configuration not stated) | 770 | 3 |  |
| CC(=O)c1ccc(C(Cc2cc[n+]([O-])cc2)c2ccc(OC(F)F)c(OC(F)F)c2)cn1 (configuration not stated) | 2200 | 102 |  |
| CC(O)(c1ccccc1)c1ccc(C(Cc2cc[n+]([O-])cc2)c2ccc(OC(F)F)c(OC(F)F)c2)cn1 (mixture of isomers) |  | 48 | IC50 (Homo sapiens): 3500 nM |
| CC(O)(c1ccccc1)c1ccc(C(Cc2cc[n+]([O-])cc2)c2ccc(OC(F)F)c(OC(F)F)c2)cn1 (racemic) |  | 0.6 | IC50 (Homo sapiens): 350 nM |
| CC(O)(c1ccccc1)c1ccc(C(Cc2cc[n+]([O-])cc2)c2ccc(OC(F)F)c(OC(F)F)c2)cn1 (single isomer, unassigned; diastereomer 1) |  | 2 | half-life [3]: 2.2 h; bioavailability [4]: 73%; Cmax [5]: 2200 nM; bioavailability [6]: 57%; half-life [7]: 1.5 h; Inhibition (Cavia porcellus): 62%; IC50 (Homo sapiens): 160 nM; inhibition in vivo at 0.5 mg/kg (Ovis aries [8]): 91%; inhibition in vivo at 0.5 mg/kg (Ovis aries [9]): 33% |
| CC(O)(c1ccccc1)c1ccc(C(Cc2cc[n+]([O-])cc2)c2ccc(OC(F)F)c(OC(F)F)c2)cn1 (single isomer, unassigned; diastereomer 2) |  | 1 | Inhibition (Cavia porcellus): 34%; IC50 (Homo sapiens): 110 nM |
| COc1ccc([C@H](Cc2ccncc2)c2ccccc2)cc1OC1CCCC1 [CDP840] | 16000 |  |  |
